Assay results: PMC5578959, “Selective LRRK2 kinase inhibition reduces phosphorylation of endogenous Rab10 and Rab12 in human peripheral mononuclear blood cells” (Scientific Reports, 2017)

What was measured:
Test in all cases: KiNativ profiling in human PBMCs
Format in all cases: binding
[1] = system: T1, PITSLRE; settings: Lys2
T1 construct: purchased ActivX Technologies (KiNativ)
Method in brief: (§1)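 Steps: expose living PBMCs to compound (0.1 µM or 1 µM); perform KiNativ-based kinase profiling.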

[2] = system: T2, IKKa; settings: Lys2
T2 construct: purchased ActivX Technologies (KiNativ)
Method in brief: as §1

[3] = system: T3, MAP3K1; settings: Lys2
T3 construct: purchased ActivX Technologies (KiNativ)
Method in brief: as §1

[4] = system: T4, ARAF; settings: Lys2
T4 construct: purchased ActivX Technologies (KiNativ)
Method in brief: as §1

[5] = system: T5, SGK3
T5 construct: purchased ActivX Technologies (KiNativ)
Method in brief: as §1

[6] = system: JNK1,JNK2,JNK3; settings: Lys2
Method in brief: as §1

[7] = system: T6, OSR1; settings: Lys2
T6 construct: purchased ActivX Technologies (KiNativ)
Method in brief: as §1

[8] = system: T7, TBK1; settings: Lys1
T7 construct: purchased ActivX Technologies (KiNativ)
Method in brief: as §1

[9] = system: T8, NEK4; settings: Lys2
T8 construct: purchased ActivX Technologies (KiNativ)
Method in brief: as §1

[10] = system: T9, MAP2K3
T9 construct: purchased ActivX Technologies (KiNativ)
Method in brief: as §1

[11] = system: AKT2,AKT3; settings: ATP Loop
Method in brief: as §1

[12] = system: T10, MAP3K2; settings: Lys1
T10 construct: purchased ActivX Technologies (KiNativ)
Method in brief: as §1

[13] = system: T11, PIP5K3; settings: ATP
T11 construct: purchased ActivX Technologies (KiNativ)
Method in brief: as §1

[14] = system: T12, GCN2
T12 construct: purchased ActivX Technologies (KiNativ)
Method in brief: as §1

[15] = system: MST1,MST2; settings: Lys2
Method in brief: as §1

[16] = system: RSK1,RSK2,RSK3 domain1; settings: Lys2
Method in brief: as §1

[17] = system: T13, TLK2
T13 construct: purchased ActivX Technologies (KiNativ)
Method in brief: as §1

[18] = system: T14, MAP3K5; settings: Lys2
T14 construct: purchased ActivX Technologies (KiNativ)
Method in brief: as §1

[19] = system: T15, STLK3; settings: Lys2
T15 construct: purchased ActivX Technologies (KiNativ)
Method in brief: as §1

[20] = system: KSR1,KSR2; settings: Activation Loop
Method in brief: as §1

[21] = system: T16, RIPK3; settings: Lys2
T16 construct: purchased ActivX Technologies (KiNativ)
Method in brief: as §1

[22] = system: T17, JAK1 domain1; settings: Protein Kinase Domain
T17 construct: JAK1 domain1; purchased ActivX Technologies (KiNativ)
Method in brief: as §1

[23] = system: MARK2,MARK3; settings: Lys2
Method in brief: as §1

[24] = system: T18, PRP4
T18 construct: purchased ActivX Technologies (KiNativ)
Method in brief: as §1

[25] = system: T19, SNRK
T19 construct: purchased ActivX Technologies (KiNativ)
Method in brief: as §1

[26] = system: T20, KHS1; settings: Lys1
T20 construct: purchased ActivX Technologies (KiNativ)
Method in brief: as §1

[27] = system: T21, RSK3 domain1; settings: Lys2
T21 construct: RSK3 domain1; purchased ActivX Technologies (KiNativ)
Method in brief: as §1

[28] = system: T22, PIK3CG; settings: ATP
T22 construct: purchased ActivX Technologies (KiNativ)
Method in brief: as §1

[29] = system: T23, Erk2; settings: Lys2
T23 construct: purchased ActivX Technologies (KiNativ)
Method in brief: as §1

[30] = system: T24, SLK
T24 construct: purchased ActivX Technologies (KiNativ)
Method in brief: as §1

[31] = system: MAP3K15,MAP3K5,MAP3K6; settings: Lys1
Method in brief: as §1

[32] = system: T25, YANK3; settings: Lys2
T25 construct: purchased ActivX Technologies (KiNativ)
Method in brief: as §1

[33] = system: T26, CaMK2g; settings: Lys1
T26 construct: purchased ActivX Technologies (KiNativ)
Method in brief: as §1

[34] = system: T27, MSK1 domain1; settings: Lys2
T27 construct: MSK1 domain1; purchased ActivX Technologies (KiNativ)
Method in brief: as §1

[35] = system: T28, Erk5; settings: Lys2
T28 construct: purchased ActivX Technologies (KiNativ)
Method in brief: as §1

[36] = system: TAO1,TAO3; settings: Lys2
Method in brief: as §1

[37] = system: T29, ULK1; settings: Lys2
T29 construct: purchased ActivX Technologies (KiNativ)
Method in brief: as §1

[38] = system: T30, CaMKK2
T30 construct: purchased ActivX Technologies (KiNativ)
Method in brief: as §1

[39] = system: T31, PIK3C3; settings: ATP
T31 construct: purchased ActivX Technologies (KiNativ)
Method in brief: as §1

Structure (SMILES): Cn1cc(-c2c[nH]c3ncnc(N4CCOCC4)c23)cc1C#N [PFE-360]
- % Inhibition ([1]; 0.1µM): -3.8%
- % Inhibition ([1]; 1µM): -18.7%
- % Inhibition ([2]; 0.1µM): 17.9%
- % Inhibition ([2]; 1µM): 15.8%
- % Inhibition ([3]; 0.1µM): 7%
- % Inhibition ([3]; 1µM): -26.4%
- % Inhibition ([4]; 0.1µM): 7.6%
- % Inhibition ([4]; 1µM): 2.5%
- % Inhibition ([5]; 0.1µM, Lys1): 8.9%
- % Inhibition ([5]; 0.1µM, Lys2): -21.8%
- % Inhibition ([5]; 1µM, Lys1): 5.1%
- % Inhibition ([5]; 1µM, Lys2): -10.5%
- % Inhibition ([6]; 0.1µM): 2.1%
- % Inhibition ([6]; 1µM): -12%
- % Inhibition ([7]; 0.1µM): -20.9%
- % Inhibition ([7]; 1µM): -5.1%
- % Inhibition ([8]; 0.1µM): -29%
- % Inhibition ([8]; 1µM): 2.1%
- % Inhibition ([9]; 0.1µM): 9.8%
- % Inhibition ([9]; 1µM): -8.3%
- % Inhibition ([10]; 0.1µM, Lys1): -7.9%
- % Inhibition ([10]; 0.1µM, Lys2): 9.4%
- % Inhibition ([10]; 1µM, Lys1): 11.1%
- % Inhibition ([10]; 1µM, Lys2): -11.7%
- % Inhibition ([11]; 0.1µM): -2.2%
- % Inhibition ([11]; 1µM): -5.2%
- % Inhibition ([12]; 0.1µM): -14.1%
- % Inhibition ([12]; 1µM): -24.4%
- % Inhibition ([13]; 0.1µM): -6.1%
- % Inhibition ([13]; 1µM): -15.9%
- % Inhibition ([14]; 0.1µM, Lys1): 3.5%
- % Inhibition ([14]; 0.1µM, Lys2): -3.6%
- % Inhibition ([14]; 1µM, Lys1): -13.3%
- % Inhibition ([14]; 1µM, Lys2): 2.5%
- % Inhibition ([15]; 0.1µM): 15%
- % Inhibition ([15]; 1µM): 39.1%
- % Inhibition ([16]; 0.1µM): 14.5%
- % Inhibition ([16]; 1µM): 16.3%
- % Inhibition ([17]; 0.1µM, Lys1): -8.8%
- % Inhibition ([17]; 0.1µM, Lys2): -5.5%
- % Inhibition ([17]; 1µM, Lys1): -9.2%
- % Inhibition ([17]; 1µM, Lys2): -10.6%
- % Inhibition ([18]; 0.1µM): 44.3%
- % Inhibition ([18]; 1µM): 60.3%
- % Inhibition ([19]; 0.1µM): -1.9%
- % Inhibition ([19]; 1µM): -6.2%
- % Inhibition ([20]; 0.1µM): 19.7%
- % Inhibition ([20]; 1µM): 10.8%
- % Inhibition ([21]; 0.1µM): 16.1%
- % Inhibition ([21]; 1µM): 27.3%
- % Inhibition ([22]; 0.1µM): 16.2%
- % Inhibition ([22]; 1µM): 8.2%
- % Inhibition ([23]; 0.1µM): -16.2%
- % Inhibition ([23]; 1µM): 16.7%
- % Inhibition ([24]; 0.1µM, Lys2): -12.1%
- % Inhibition ([24]; 0.1µM, Protein Kinase Domain): -9.2%
- % Inhibition ([24]; 1µM, Lys2): -13.6%
- % Inhibition ([24]; 1µM, Protein Kinase Domain): -18%
- % Inhibition ([25]; 0.1µM, Lys1): 17.1%
- % Inhibition ([25]; 0.1µM, Lys2): -21.9%
- % Inhibition ([25]; 1µM, Lys1): -2%
- % Inhibition ([25]; 1µM, Lys2): -18.7%
- % Inhibition ([26]; 0.1µM): 1.1%
- % Inhibition ([26]; 1µM): -9.3%
- % Inhibition ([27]; 0.1µM): 5.5%
- % Inhibition ([27]; 1µM): 8.1%
- % Inhibition ([28]; 0.1µM): -1.2%
- % Inhibition ([28]; 1µM): -7%
- % Inhibition ([29]; 0.1µM): 9.1%
- % Inhibition ([29]; 1µM): 5.3%
- % Inhibition ([30]; 0.1µM, Lys1): 3.8%
- % Inhibition ([30]; 0.1µM, Lys2): 4.8%
- % Inhibition ([30]; 1µM, Lys1): 22.3%
- % Inhibition ([30]; 1µM, Lys2): -8.4%
- % Inhibition ([31]; 0.1µM): 26.2%
- % Inhibition ([31]; 1µM): 53.5%
- % Inhibition ([32]; 0.1µM): 8.2%
- % Inhibition ([32]; 1µM): 13.5%
- % Inhibition ([33]; 0.1µM): 11.1%
- % Inhibition ([33]; 1µM): 9.2%
- % Inhibition ([34]; 0.1µM): -7.8%
- % Inhibition ([34]; 1µM): -5.1%
- % Inhibition ([35]; 0.1µM): 5%
- % Inhibition ([35]; 1µM): 7.2%
- % Inhibition ([36]; 0.1µM): -0.2%
- % Inhibition ([36]; 1µM): -14.3%
- % Inhibition ([37]; 0.1µM): 9.8%
- % Inhibition ([37]; 1µM): 4.2%
- % Inhibition ([38]; 0.1µM, Lys1): -23.9%
- % Inhibition ([38]; 0.1µM, Lys2): -16.3%
- % Inhibition ([38]; 1µM, Lys1): -1.2%
- % Inhibition ([38]; 1µM, Lys2): 4.6%
- % Inhibition ([39]; 0.1µM, peptide TEDGGKYPVIFKHGDDLR): -2.7%
- % Inhibition ([39]; 0.1µM, peptide TEDGGKYPVIFKHGDDLRQDQLILQIISLMDK): -22.4%
- % Inhibition ([39]; 1µM, peptide TEDGGKYPVIFKHGDDLR): -7.9%
- % Inhibition ([39]; 1µM, peptide TEDGGKYPVIFKHGDDLRQDQLILQIISLMDK): -43.1%
